Where two headings read alike, the source gives them in different places.
Legend:
[1] = format: in vitro ADME; conditions: female, New Zealand White, rabbit
Text: (§1) The results are shown in below Table 2.

[2] = Permeation through excised duodenal mucosa; format: in vitro ADME, rabbit
Text: as §1

[3] = Permeation through excised colonic mucosa; format: in vitro ADME, rabbit
Text: as §1

[4] = Permeation through excised rectal mucosa; format: in vitro ADME, rabbit
Text: as §1

[5] = Test for intranasal stability of active ingredient in nasal mucosa extract; conditions: 37° C.; for Residual Concentration: 200 μg/mL added
Method: The fresh nasal mucosa excised from a rabbit (body weight 3.0 kg, New Zealand White female rabbit) was mounted to the Valia-Chien permeation system maintained at a constant temperature of 37° C. Each of the donor and receptor half-cells was filled with each 3.5 mL of saline, maintained at the constant temperature for 4 hours while stirring with a magnetic star-head bar, and then both extracts from the half-cells were combined and used as nasal mucosa extracts.
Ondansetron hydrochloride (200 μg/mL) was added to the obtained nasal mucosa extract, and then maintained at the temperature of 37° C. for 4 hours while gently shaking in order to confirm the physiochemical or enzymatic stability of ondansetron hydrochloride in a nasal cavity.

[6] = Comparison of bioavailability after nasal, intravenous and oral administration; format: in vivo, Sprague-Dawley male rats; conditions: rats, 2 mg/kg; for Cmax / Tmax / AUC(0-t): male, Sprague-Dawley, rat, in vivo; for AUC(0-t): read-out: AUC0-2hr
Method: Twenty four (24) white rats (body weight 250-300 g, Sprague-Dawley male rats) were classified into 3 groups, namely 6, 11 and 7 rats. After nasal, intravenous and oral administration to each group of rats, the bioavailability according to the different routes of administration was compared.
Ondansetron hydrochloride was dissolved in the composition obtained in Formulation Example for nasal administration, in 0.9% saline for intravenous administration, and in purified water for oral administration as vehicles, respectively. Each 2 mg/kg of the solutions was administered thereby. The blood samples were collected at the predetermined time intervals to analyze the concentration of ondansetron hydrochloride in the plasma. The bioavailibity parameters were calculated from the assay results.

[7] = inhaled or intranasal, nasal, in composition of Formulation Example

Cc1nccn1CC1CCc2c(c3ccccc3n2C)C1=O.Cl.O.O (stereo not shown) [ondansetron hydrochloride, 1,2,3,9-tetrahydro-9-methyl-3-[(2-methyl-1H-imidazol-1-yl)methyl]-4H-carbazol-4-one hydrochloride dihydrate]
Cumulative Amounts ([1]; 0.333 hr): 68.2 ± 4.7 μg/cm^2 | permeation rate through nasal mucosa relative to colonic mucosa ([1]; 30 min): 7.5 times | permeation rate through nasal mucosa relative to duodenal mucosa ([1]; 30 min): 7.2 times | permeation rate through nasal mucosa relative to rectal mucosa ([1]; 30 min): 15.8 times | Cumulative Amounts ([1]; 0.5 hr): 106.8 ± 14.9 μg/cm^2 | Cumulative Amounts ([1]; 1 hr): 180.5 ± 12.4 μg/cm^2 | Cumulative Amounts ([1]; 1.5 hr): 261.5 ± 15.1 μg/cm^2 | Cumulative Amounts ([1]; 2 hr): 289.3 ± 23.5 μg/cm^2 | Cumulative Amounts ([1]; 3 hr): 414.6 ± 22.6 μg/cm^2 | Cumulative Amounts ([1]; 4 hr): 559.4 ± 28.2 μg/cm^2 | Cumulative Amounts ([2]; 0.5 hr): 14.8 ± 3.5 μg/cm^2 | Cumulative Amounts ([2]; 1.0 hr): 35.4 ± 8.2 μg/cm^2 | Cumulative Amounts ([2]; 2.0 hr): 94.6 ± 23.9 μg/cm^2 | Cumulative Amounts ([2]; 4.0 hr): 280.1 ± 43.2 μg/cm^2 | Cumulative Amounts ([2]; 6.0 hr): 453.1 ± 36.3 μg/cm^2 | Cumulative Amounts ([3]; 0.5 hr): 14.3 ± 2.2 μg/cm^2 | Cumulative Amounts ([3]; 1.0 hr): 36.5 ± 7.8 μg/cm^2 | Cumulative Amounts ([3]; 2.0 hr): 112.1 ± 14.6 μg/cm^2 | Cumulative Amounts ([3]; 4.0 hr): 294.8 ± 14.7 μg/cm^2 | Cumulative Amounts ([3]; 6.0 hr): 438.9 ± 27.2 μg/cm^2 | Cumulative Amounts ([4]; 0.5 hr): 6.7 ± 0.1 μg/cm^2 | Cumulative Amounts ([4]; 1.0 hr): 9.6 ± 0.9 μg/cm^2 | Cumulative Amounts ([4]; 2.0 hr): 19.3 ± 5.8 μg/cm^2 | Cumulative Amounts ([4]; 4.0 hr): 54.1 ± 6.7 μg/cm^2 | Cumulative Amounts ([4]; 6.0 hr): 164.2 ± 9.2 μg/cm^2 | Residual Concentration ([5]; 0 hr): 198.6 ± 1.3 µg/mL | Residual Concentration ([5]; 1 hr): 199.0 ± 5.2 µg/mL | Residual Concentration ([5]; 2 hr): 203.5 ± 3.0 µg/mL | Residual Concentration ([5]; 3 hr): 196.9 ± 0.6 µg/mL | Residual Concentration ([5]; 4 hr): 197.9 ± 9.6 µg/mL | degradation in nasal mucosa extract ([5]; for 4 hours): not nearly degraded | Cmax [6, 7]: 49.4 ± 18.7 ng/mL | Tmax [6, 7]: 9.4 min | AUC(0-t) [6, 7]: 53.2 ± 9.5 ng·h/mL | AUC(0-t) ([6]; IV injection, in 0.9% saline): 51.1 ± 7.4 ng·h/mL | Cmax ([6]; oral, in purified water): 29.7 ± 10.6 ng/mL | Tmax ([6]; oral, in purified water): 11.8 min | AUC(0-t) ([6]; oral, in purified water): 24.9 ± 12.6 ng·h/mL | AUC0-2 hr in nasal administration higher than that in oral administration [6]: 2.1 times | Cmax in oral administration lower than that in nasal administration [6]: 1.7 times
